{"source": "ChEMBL document CHEMBL1201862", "about": "“PubChem BioAssay data set” (2004)", "key": {"[1]": {"biological_target": "Large T antigen (Simian virus 40, UniProt P03070)", "sequence (P03070 whole entry)": "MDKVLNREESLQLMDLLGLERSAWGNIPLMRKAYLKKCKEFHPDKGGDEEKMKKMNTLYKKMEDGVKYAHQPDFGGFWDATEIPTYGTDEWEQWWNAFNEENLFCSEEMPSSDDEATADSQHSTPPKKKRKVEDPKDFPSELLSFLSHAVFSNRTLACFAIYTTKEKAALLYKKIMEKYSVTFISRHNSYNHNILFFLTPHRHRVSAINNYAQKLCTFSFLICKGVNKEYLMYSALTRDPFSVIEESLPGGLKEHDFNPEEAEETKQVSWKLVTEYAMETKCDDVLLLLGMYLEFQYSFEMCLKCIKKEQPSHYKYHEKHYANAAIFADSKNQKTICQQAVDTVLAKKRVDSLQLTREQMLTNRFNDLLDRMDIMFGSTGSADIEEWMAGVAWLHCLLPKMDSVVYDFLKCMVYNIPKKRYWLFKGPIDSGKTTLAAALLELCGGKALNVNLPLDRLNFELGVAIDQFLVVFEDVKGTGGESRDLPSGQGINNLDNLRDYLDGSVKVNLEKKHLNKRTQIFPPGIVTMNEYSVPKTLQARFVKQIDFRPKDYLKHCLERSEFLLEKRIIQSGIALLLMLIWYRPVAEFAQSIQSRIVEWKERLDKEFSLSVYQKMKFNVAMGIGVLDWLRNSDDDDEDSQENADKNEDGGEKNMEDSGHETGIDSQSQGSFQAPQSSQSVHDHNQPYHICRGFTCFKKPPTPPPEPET", "type": "functional, Betapolyomavirus macacae"}, "[2]": {"biological_target": "Cytochrome P450 3A4 (Homo sapiens, UniProt P08684)", "sequence (P08684 whole entry)": "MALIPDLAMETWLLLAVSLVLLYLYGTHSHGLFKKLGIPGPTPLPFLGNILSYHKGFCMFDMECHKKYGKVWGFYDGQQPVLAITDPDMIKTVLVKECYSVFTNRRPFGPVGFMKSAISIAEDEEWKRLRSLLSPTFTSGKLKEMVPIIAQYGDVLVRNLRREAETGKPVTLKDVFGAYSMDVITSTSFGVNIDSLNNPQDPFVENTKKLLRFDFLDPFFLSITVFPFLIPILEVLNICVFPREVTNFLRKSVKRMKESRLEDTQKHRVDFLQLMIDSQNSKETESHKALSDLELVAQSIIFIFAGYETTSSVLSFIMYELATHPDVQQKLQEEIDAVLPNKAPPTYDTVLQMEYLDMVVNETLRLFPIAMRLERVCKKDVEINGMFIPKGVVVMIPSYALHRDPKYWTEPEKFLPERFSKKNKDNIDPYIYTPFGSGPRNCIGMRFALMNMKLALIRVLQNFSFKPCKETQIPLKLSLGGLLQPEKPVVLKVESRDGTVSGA", "settings": "Potency"}, "[3]": {"biological_target": "Nonstructural protein 1 (Influenza A virus, UniProt Q194T2)", "sequence (Q194T2 whole entry)": "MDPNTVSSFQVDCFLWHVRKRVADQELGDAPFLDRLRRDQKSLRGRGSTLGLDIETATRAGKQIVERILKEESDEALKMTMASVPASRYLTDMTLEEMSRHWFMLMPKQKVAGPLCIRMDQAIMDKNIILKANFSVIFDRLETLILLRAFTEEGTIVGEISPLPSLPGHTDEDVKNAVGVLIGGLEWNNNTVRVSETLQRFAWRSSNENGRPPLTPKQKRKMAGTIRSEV", "type": "functional, Influenza A virus (A/California/07/2009(H1N1))"}, "[4]": {"assay": "viability of PTEN-deleted HCT116 cells – cell-based, HCT116 PTEN knockout, dose response (AID 1047);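 further: cells exposed to compound for 60 hours before readout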", "type": "functional"}, "[5]": {"assay": "viability of HCT116 lacking mutant beta-catenin – cell-based, human colon tumor, dose response (AID 1045);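 further: cells exposed to compound for 60 hours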", "type": "functional"}, "[6]": {"biological_target": "T1, Fatty acid synthase (Homo sapiens, UniProt P49327)", "T1 sequence (P49327 whole entry)": "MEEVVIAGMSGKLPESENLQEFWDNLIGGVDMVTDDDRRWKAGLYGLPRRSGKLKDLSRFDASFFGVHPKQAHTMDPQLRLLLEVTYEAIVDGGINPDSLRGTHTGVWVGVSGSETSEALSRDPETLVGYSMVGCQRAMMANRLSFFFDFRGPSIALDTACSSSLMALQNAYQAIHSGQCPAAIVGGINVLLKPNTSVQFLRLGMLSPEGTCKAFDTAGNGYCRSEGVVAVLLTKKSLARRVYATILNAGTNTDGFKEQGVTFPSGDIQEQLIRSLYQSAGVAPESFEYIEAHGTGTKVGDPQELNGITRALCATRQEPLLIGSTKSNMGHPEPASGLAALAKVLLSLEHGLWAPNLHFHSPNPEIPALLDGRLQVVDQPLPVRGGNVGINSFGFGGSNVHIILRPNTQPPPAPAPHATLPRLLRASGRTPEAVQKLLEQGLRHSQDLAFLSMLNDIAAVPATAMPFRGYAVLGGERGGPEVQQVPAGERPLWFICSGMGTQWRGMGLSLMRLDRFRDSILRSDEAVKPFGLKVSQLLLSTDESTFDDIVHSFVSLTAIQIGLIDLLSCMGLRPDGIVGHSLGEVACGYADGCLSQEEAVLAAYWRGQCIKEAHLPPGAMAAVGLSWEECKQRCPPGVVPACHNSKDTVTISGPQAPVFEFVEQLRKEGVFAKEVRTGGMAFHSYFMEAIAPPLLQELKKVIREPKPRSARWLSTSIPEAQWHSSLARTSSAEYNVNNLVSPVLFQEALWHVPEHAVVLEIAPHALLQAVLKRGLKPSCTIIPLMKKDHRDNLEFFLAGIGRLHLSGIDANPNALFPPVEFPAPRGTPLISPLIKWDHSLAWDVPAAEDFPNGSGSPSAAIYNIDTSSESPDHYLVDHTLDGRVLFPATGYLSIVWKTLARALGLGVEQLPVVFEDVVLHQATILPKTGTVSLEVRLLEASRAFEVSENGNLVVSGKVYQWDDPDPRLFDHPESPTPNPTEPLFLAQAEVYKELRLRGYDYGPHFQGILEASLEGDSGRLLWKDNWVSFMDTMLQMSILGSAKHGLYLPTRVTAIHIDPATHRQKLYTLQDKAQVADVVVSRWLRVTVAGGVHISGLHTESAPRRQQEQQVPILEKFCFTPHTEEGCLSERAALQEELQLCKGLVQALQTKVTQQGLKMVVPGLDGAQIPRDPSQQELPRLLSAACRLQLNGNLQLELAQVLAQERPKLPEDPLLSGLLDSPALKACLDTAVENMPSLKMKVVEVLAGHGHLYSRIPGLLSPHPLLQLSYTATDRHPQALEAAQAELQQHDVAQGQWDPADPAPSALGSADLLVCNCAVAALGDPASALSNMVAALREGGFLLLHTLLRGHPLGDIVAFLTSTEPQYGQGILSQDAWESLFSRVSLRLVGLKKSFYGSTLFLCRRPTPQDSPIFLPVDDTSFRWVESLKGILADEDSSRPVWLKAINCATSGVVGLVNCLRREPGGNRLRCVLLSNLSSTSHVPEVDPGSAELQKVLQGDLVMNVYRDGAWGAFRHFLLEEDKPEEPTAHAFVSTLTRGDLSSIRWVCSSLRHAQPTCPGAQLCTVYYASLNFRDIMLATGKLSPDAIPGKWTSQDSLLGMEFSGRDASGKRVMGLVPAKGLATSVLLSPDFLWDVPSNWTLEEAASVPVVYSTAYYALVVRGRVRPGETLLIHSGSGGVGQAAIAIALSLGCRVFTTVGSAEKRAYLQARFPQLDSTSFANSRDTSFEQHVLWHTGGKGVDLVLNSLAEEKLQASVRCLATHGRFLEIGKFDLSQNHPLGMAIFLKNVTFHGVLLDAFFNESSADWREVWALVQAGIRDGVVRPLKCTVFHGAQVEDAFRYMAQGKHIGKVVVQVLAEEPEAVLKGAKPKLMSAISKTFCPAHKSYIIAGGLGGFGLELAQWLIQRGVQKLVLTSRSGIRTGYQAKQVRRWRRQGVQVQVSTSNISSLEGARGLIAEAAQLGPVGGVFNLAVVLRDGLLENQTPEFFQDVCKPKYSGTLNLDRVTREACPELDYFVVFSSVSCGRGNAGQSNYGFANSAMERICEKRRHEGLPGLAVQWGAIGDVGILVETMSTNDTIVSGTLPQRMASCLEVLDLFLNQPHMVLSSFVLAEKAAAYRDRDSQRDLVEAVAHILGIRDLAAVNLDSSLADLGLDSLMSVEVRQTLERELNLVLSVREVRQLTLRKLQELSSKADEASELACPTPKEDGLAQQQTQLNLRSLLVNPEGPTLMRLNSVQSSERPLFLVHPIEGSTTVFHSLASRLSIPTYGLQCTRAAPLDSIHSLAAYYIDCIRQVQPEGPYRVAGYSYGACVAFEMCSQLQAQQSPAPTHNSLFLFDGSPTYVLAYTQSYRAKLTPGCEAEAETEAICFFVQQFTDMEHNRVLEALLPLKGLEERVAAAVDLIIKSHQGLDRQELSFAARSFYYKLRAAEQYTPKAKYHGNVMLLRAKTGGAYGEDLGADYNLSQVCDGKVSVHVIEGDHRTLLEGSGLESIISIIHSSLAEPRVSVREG", "assay": "inhibition of human FAS-TE enzyme activity – biochemical, endpoint fluorescence intensity, uHTS hits, dose response (AID 624327);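 further: fluorescence from hydrolysis of an O-methyl fluorescein acyl ester substrate by the enzyme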", "type": "functional"}, "[7]": {"biological_target": "T1, Fatty acid synthase", "assay": "inhibition of human FAS-TE enzyme activity – biochemical, kinetic fluorescence intensity, dose response (AID 624326);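 further: rate of fluorescence rise from hydrolysis of a fluorogenic O-methyl fluorescein ester substrate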", "type": "functional"}, "[8]": {"system": "HEK293", "assay": "EBV LMP1 TES2 canonical NF-kB signalling blockers – cell-based, HEK293, luciferase, cherry-pick, dose response (AID 588343)", "type": "functional", "settings": "Homo sapiens"}, "[9]": {"assay": "NIH-3T3 fibroblast cytotoxicity, dose response, cytotoxicity control, cell-based, fluorescence, Alamar Blue, secondary assay (AID 2327);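 further: NIH-3T3 mouse fibroblasts cultured with fluconazole at 8 µg/mL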", "type": "functional"}, "[10]": {"assay": "fluconazole-exposed Candida albicans growth modulators – fluorescence, retest, confirmation (AID 2467)", "type": "functional, cell-based"}, "[11]": {"biological_target": "T2, Microphthalmia-associated transcription factor (Homo sapiens, UniProt O75030)", "T2 sequence (O75030 whole entry)": "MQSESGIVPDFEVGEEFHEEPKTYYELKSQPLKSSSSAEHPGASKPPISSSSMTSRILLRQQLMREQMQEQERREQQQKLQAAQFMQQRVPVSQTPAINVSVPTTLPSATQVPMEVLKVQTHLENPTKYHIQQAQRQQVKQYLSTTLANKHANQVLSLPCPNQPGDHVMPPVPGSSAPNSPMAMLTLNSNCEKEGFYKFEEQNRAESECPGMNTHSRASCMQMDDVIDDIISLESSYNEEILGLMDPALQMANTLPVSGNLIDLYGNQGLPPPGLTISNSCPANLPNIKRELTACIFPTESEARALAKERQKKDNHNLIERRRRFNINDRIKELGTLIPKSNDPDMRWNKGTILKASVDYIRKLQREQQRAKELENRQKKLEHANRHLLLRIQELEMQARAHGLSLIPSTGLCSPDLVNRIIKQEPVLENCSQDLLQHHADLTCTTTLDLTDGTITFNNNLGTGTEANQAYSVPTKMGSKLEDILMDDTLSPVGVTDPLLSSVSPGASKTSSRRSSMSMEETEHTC", "assay": "reducers of TRPM1 reporter luminescence, concentration series – cell-based, SK-MEL-5, cherry-picked, set 3, MITF inhibitor project, dose response (AID 493073)", "type": "functional"}, "[12]": {"system": "INS1", "assay": "INS-1E survival protection against cytokine death – cell-based, luminescence, retest, dose response (AID 449756);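 further: cell death triggered by IL-1 beta plus TNF-alpha plus IFN-gamma mixture; protective hits raise ATP signal compared with cytokine alone wells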", "type": "functional", "settings": "Rattus norvegicus"}, "[13]": {"biological_target": "T3, High affinity choline transporter 1 (Homo sapiens, UniProt Q9GZV3)", "T3 sequence (Q9GZV3 whole entry)": "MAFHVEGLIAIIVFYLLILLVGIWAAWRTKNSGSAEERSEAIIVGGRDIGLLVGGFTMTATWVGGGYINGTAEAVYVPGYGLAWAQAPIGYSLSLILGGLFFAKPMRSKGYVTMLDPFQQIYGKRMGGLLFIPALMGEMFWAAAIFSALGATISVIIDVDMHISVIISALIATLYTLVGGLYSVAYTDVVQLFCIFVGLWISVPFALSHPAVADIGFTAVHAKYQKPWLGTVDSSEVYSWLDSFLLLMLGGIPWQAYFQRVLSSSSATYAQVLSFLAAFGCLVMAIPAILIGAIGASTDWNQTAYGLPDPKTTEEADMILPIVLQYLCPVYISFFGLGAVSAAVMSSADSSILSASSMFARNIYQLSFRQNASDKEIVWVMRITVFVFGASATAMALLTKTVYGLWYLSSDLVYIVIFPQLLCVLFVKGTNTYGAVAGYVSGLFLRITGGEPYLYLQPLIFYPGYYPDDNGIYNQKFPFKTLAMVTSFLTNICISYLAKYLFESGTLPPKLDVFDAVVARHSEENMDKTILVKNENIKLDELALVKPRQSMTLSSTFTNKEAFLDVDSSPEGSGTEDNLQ", "assay": "human choline transporter blockers, potency – cell-based, 5-point CRC, membrane potential dye, dose response (AID 504840)", "type": "functional"}, "[14]": {"biological_target": "T4, Heat shock factor protein 1 (Mus musculus, UniProt P38532)", "T4 sequence (P38532 whole entry)": "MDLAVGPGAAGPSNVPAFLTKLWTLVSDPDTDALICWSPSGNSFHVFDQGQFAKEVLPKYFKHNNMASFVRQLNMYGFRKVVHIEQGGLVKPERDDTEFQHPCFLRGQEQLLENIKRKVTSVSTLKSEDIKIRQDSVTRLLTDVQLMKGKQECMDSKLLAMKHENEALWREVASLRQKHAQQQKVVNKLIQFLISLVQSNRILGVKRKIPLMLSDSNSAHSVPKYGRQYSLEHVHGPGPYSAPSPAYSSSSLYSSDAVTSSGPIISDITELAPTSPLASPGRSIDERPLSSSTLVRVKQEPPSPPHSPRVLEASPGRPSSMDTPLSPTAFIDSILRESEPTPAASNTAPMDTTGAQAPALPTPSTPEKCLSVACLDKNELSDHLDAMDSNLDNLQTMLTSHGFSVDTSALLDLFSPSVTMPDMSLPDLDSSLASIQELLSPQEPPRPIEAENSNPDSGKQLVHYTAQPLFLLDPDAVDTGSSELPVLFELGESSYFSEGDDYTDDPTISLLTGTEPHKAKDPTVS", "assay": "enhancement of HSF1-driven luciferase signal – cell-based, NIH3T3, luminescence, dose retest, confirmation (AID 435004);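 further: stress induced by proteasome inhibitor MG132 added 30 min after compound; actives raise luminescence as potentiators of the MG132 stress response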", "type": "functional"}, "[15]": {"biological_target": "T5, Polyadenylate-binding protein 1 (Homo sapiens, UniProt P11940)", "T5 sequence (P11940 whole entry)": "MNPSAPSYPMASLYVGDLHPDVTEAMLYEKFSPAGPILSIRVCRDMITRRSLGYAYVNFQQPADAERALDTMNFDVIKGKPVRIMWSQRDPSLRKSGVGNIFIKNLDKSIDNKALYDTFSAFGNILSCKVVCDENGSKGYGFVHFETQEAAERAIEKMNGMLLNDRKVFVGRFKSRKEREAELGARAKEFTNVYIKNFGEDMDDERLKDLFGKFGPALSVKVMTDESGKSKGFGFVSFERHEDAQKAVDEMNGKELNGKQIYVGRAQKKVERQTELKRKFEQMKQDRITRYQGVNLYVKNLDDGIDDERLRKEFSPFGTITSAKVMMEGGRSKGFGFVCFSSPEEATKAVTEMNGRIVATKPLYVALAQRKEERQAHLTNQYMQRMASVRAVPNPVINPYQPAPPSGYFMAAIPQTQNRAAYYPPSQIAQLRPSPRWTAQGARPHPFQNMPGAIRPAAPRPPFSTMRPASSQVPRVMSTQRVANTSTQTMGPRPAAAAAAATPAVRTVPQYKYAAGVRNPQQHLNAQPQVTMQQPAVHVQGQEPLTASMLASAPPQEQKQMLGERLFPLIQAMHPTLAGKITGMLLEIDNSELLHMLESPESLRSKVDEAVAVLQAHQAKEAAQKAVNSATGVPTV", "assay": "MLLE binding blockers, Cy5 peptide tracer – biochemical, fluorescence polarization, Cy5-PAM2 peptide, secondary, miRNA deadenylation inhibitor project, dose response (AID 602260)", "type": "functional", "settings": "read-out: IC50_Mean"}, "[16]": {"assay": "reduction of Shn3 3'UTR-driven luciferase in osteoblasts – cell-based, Clone20 osteoblasts, firefly luciferase, cherry-picked, dose response (AID 624132)", "type": "functional"}, "[17]": {"biological_target": "T5, Polyadenylate-binding protein 1", "assay": "MLLE domain peptide-binding blockers, IC50 – biochemical, fluorescence polarization, FITC-PAM2 peptide, dose response (AID 602259)", "type": "functional", "settings": "read-out: IC50_Mean"}, "[18]": {"assay": "loss of viability in HepG2 cells – cell-based, CellTiter-Glo, cherry-picked, cytotoxicity control for Shn3 inhibitor project, dose response (AID 624134)", "type": "functional"}, "[19]": {"assay": "non-specific 3'UTR reporter inhibition in Clone20-Shn3RL – cell-based, Renilla luciferase, cherry-picked, counter-screen for Shn3 inhibitor project, dose response (AID 624133)", "type": "functional"}, "[20]": {"biological_target": "Heat shock protein HSP 90-alpha (Homo sapiens, UniProt P07900)", "type": "functional, organism-based"}}, "note": "Active and inactive are the calls of the source."}
{"smiles": "Cc1nnc(NN/C=C2\\C(=O)N(c3cccc(C(F)(F)F)c3)C(=O)c3ccccc32)nc1O", "values": [{"measurement": "IC50", "setting": "[1]", "result": "15.2 µM (active)"}]}
{"smiles": "C=CCOC(=O)C(C(C)=O)C(NC(=O)OC)c1ccc2ccccc2c1", "note": "(stereo not given)", "values": [{"measurement": "AC50", "setting": "[2]", "result": "1 µM (inconclusive)"}]}
{"smiles": "COc1ccc(Nc2ccc([N+](=O)[O-])c3nonc23)c(OC)c1", "values": [{"measurement": "IC50", "setting": "[3]", "result": "> 100 µM (active)"}]}
{"smiles": "Cc1ccc([N+](=O)[O-])cc1NC(=O)CN(C(=O)c1ccc(Cl)cc1)C1CCCCC1", "values": [{"measurement": "EC50", "setting": "[4]", "result": "43.7 µM (active)"}, {"measurement": "EC50", "setting": "[5]", "result": "209 µM (active)"}, {"measurement": "IC50", "setting": "[6]", "result": "1.18 µM (active)"}, {"measurement": "IC50", "setting": "[7]", "result": "1.24 µM (active)"}]}
{"smiles": "O=C(NCCOc1ccccc1)c1ccc2c(c1)OCO2", "values": [{"measurement": "AC50", "setting": "[8]", "result": "1.62 µM (active)"}]}
{"smiles": "CC[C@]1(c2cccc(C)c2)C(=O)N(C(=O)OC)N1C(=O)OC", "values": [{"measurement": "IC50", "setting": "[6]", "result": "9.04 µM (active)"}, {"measurement": "IC50", "setting": "[7]", "result": "8.6 µM (active)"}]}
{"smiles": "CC(C)(C)SCCNC(=O)/C=C/c1cccc([N+](=O)[O-])c1", "values": [{"measurement": "IC50", "setting": "[6]", "result": "4.09 µM (active)"}, {"measurement": "IC50", "setting": "[7]", "result": "6.29 µM (active)"}]}
{"smiles": "Cn1c(N)c(C(=O)COC(=O)c2ccnc3ccccc23)c(=O)n(C)c1=O", "values": [{"measurement": "AC50", "setting": "[2]", "result": "15.8 µM (inconclusive)"}]}
{"smiles": "CC(=O)Nc1ccc(NC(=O)c2ccccc2S(=O)(=O)c2ccc([N+](=O)[O-])cc2)cc1", "values": [{"measurement": "IC50", "setting": "[6]", "result": "13.8 µM (active)"}, {"measurement": "IC50", "setting": "[7]", "result": "15.9 µM (active)"}]}
{"smiles": "COc1cc(C(=O)Oc2c(CN3CCOCC3)cc(Cl)c3cccnc23)cc(OC)c1OC", "values": [{"measurement": "EC50", "setting": "[9]", "result": "> 160 µM (inactive)"}, {"measurement": "EC50", "setting": "[10]", "result": "4.15 µM (active)"}, {"measurement": "EC50", "setting": "[4]", "result": "2.71 µM (active)"}, {"measurement": "EC50", "setting": "[5]", "result": "2.31 µM (active)"}, {"measurement": "IC50", "setting": "[3]", "result": "19.9 µM (active)"}, {"measurement": "AC50", "setting": "[11]", "result": "7.55 µM (active)"}, {"measurement": "AC50", "setting": "[12]", "result": "4.28 µM (active)"}]}
{"smiles": "O=C(NCCCCc1ccccc1)C1CC(c2cccc([N+](=O)[O-])c2)=NO1", "note": "(stereo not given)", "values": [{"measurement": "IC50", "setting": "[6]", "result": "3.11 µM (active)"}, {"measurement": "IC50", "setting": "[7]", "result": "4.27 µM (active)"}]}
{"smiles": "CSc1ccccc1C(=O)N1CCC2(CC1)CC(=O)c1ccccc1O2", "values": [{"measurement": "AC50", "setting": "[8]", "result": "22.5 µM (active)"}]}
{"smiles": "CCCc1ccc(OCc2ccc(C(=O)NCc3cccnc3)o2)c(OC)c1", "values": [{"measurement": "IC50", "setting": "[13]", "result": "5.01 µM (active)"}]}
{"smiles": "Cc1cc(Sc2ncnc(N)c2[N+](=O)[O-])ncn1", "values": [{"measurement": "EC50", "setting": "[9]", "result": "2.67 µM (inconclusive)"}, {"measurement": "EC50", "setting": "[10]", "result": "0.58 µM (active)"}, {"measurement": "EC50", "setting": "[14]", "result": "12.2 µM (active)"}, {"measurement": "AC50", "setting": "[11]", "result": "7.61 µM (active)"}, {"measurement": "IC50", "setting": "[15]", "result": "> 66 µM (inactive)"}, {"measurement": "AC50", "setting": "[16]", "result": "5.7 µM (active)"}, {"measurement": "IC50", "setting": "[17]", "result": "> 66 µM (inactive)"}, {"measurement": "AC50", "setting": "[18]", "result": "30.1 µM (active)"}, {"measurement": "AC50", "setting": "[19]", "result": "7.76 µM (active)"}]}
{"smiles": "Nc1cccc(N)c1", "values": [{"measurement": "AC50", "setting": "[2]", "result": "31.6 µM (inconclusive)"}]}
{"smiles": "Cc1cc(Cl)ccc1OCCCC(=O)N1CCN(C(=O)c2ccco2)CC1", "values": [{"measurement": "IC50", "setting": "[13]", "result": "2 µM (active)"}]}
{"smiles": "CC(C)c1c(O)ccc2c1CCC1[C@@](C)(CO)CCC[C@@]21C", "note": "(stereo not given in full)", "values": [{"measurement": "AC50", "setting": "[2]", "result": "39.8 µM (inconclusive)"}]}
{"smiles": "O=C(C[n+]1ccccc1)NN=Cc1cc(Br)cc(Br)c1O", "values": [{"measurement": "IC50", "setting": "[3]", "result": "3.68 µM (active)"}]}
{"smiles": "O=C(OCC(=O)C12CC3CC(CC(C3)C1)C2)c1ccc(O)cc1", "values": [{"measurement": "AC50", "setting": "[20]", "result": "1.04 µM (active)"}]}
